Here are results for two compounds from ChEMBL document CHEMBL1137016, “1-alkyl-8-(piperazine-1-sulfonyl)phenylxanthines: development and characterization of adenosine A2B receptor antagonists and a new radioligand with subnanomolar affinity and subtype specificity” (J Med Chem, 2009).

Experiment [1] concerns the target Adenosine receptor A2a (Rattus norvegicus, UniProt P30543). Briefly: Displacement of [3H]MSX-2 from rat brain striatum adenosine A2A receptor.
Experiment [2] addresses T1, Adenosine receptor A1 (Homo sapiens) (UniProt P30542).
T1 sequence (whole entry): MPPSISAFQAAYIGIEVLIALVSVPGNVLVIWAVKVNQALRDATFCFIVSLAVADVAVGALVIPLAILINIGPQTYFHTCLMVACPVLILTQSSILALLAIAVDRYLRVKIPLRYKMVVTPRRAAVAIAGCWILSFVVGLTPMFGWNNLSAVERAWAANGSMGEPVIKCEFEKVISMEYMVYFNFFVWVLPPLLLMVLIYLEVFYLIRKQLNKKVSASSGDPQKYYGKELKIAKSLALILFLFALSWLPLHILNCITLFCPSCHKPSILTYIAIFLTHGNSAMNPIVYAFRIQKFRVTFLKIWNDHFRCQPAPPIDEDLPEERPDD
Briefly: Displacement of [3H]CCPA from human recombinant adenosine A1 receptor expressed in CHO cells at 10 uM. The experiment is classed as cell-based.

The target of experiment [3] is T2, Adenosine receptor A1 (Homo sapiens, UniProt P30542).
T2 sequence (P30542 whole entry): T1 sequence (whole entry)
Briefly: Displacement of [3H]CCPA from human adenosine A1 receptor expressed in CHO cells. The experiment is classed as cell-based.

Experiment [4] has as its target T3, Adenosine receptor A2b (Homo sapiens, UniProt P29275).
T3 sequence (P29275 whole entry): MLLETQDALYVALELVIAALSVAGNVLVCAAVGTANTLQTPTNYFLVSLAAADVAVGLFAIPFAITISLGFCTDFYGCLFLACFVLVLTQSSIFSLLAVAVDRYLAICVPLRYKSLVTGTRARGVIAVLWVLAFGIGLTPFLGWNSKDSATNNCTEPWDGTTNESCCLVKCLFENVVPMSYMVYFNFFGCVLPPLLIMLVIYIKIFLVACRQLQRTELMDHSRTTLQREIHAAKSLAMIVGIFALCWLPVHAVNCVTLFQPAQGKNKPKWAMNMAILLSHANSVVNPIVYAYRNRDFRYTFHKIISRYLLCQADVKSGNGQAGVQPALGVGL
Briefly: Antagonist activity at adenosine A2B receptor in human Jurkat T cells assessed as inhibition of NECA-induced increase in intracellular calcium concentration by fluorimetric measurement in presence of MSX-2. The class given is functional, cell-based.

The target in experiment [5] is T3, Adenosine receptor A2b. Briefly: Binding affinity to human recombinant adenosine A2B receptor expressed in CHO cells by saturation experiment. The class given is cell-based.
The target in experiment [6] is T4, Adenosine receptor A2a (Homo sapiens, UniProt P29274). Briefly: Displacement of [3H]MSX-2 from human recombinant adenosine A2A receptor expressed in CHO cells. The class given is cell-based.
Experiment [7] concerns the target T3, Adenosine receptor A2b. Kind of experiment: Binding affinity to human recombinant adenosine A2B receptor expressed in CHO cells by kinetic experiment. The class given is cell-based.
The target in experiment [8] is T5, Adenosine receptor A1 (Rattus norvegicus) (UniProt P25099).
T5 sequence (whole entry): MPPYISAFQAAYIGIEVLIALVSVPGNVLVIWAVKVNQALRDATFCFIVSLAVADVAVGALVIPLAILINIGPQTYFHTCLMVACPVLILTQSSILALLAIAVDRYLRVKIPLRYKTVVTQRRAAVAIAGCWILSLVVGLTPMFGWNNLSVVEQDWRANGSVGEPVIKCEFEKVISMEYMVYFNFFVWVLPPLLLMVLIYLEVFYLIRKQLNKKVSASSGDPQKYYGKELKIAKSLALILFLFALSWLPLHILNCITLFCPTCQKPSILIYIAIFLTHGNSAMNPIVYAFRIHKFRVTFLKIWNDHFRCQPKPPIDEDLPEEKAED
Kind of experiment: Displacement of [3H]CCPA from rat brain cortex adenosine A1 receptor at 10 uM.

Experiment [9] has as its target T6, Adenosine receptor A1 (Rattus norvegicus, UniProt P25099).
T6 sequence (P25099 whole entry): T5 sequence (whole entry)
Kind of experiment: Displacement of [3H]CCPA from rat brain cortex adenosine A1 receptor.

For the next experiment, the target named is T7, Adenosine receptor A3 (Homo sapiens, UniProt P0DMS8).
T7 sequence (P0DMS8 whole entry): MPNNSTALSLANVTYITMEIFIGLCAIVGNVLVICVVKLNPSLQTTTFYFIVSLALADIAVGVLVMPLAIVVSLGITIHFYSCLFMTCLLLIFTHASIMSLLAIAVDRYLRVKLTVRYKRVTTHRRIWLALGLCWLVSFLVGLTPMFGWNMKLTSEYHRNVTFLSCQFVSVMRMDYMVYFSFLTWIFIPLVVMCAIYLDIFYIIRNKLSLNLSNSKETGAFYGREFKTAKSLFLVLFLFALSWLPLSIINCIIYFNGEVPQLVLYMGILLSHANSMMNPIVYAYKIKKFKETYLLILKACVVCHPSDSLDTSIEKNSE
Briefly: Displacement of [3H]PSB-11 from human recombinant adenosine A3 receptor expressed in CHO cells. The experiment is classed as cell-based.

Experiment [10] deals with T3, Adenosine receptor A2b. Kind of experiment: Displacement of [3H]PSB-603 from human recombinant adenosine A2B receptor expressed in CHO cells. The experiment is classed as cell-based.
In experiment [11] the target is T8, Adenosine receptor A2b (Homo sapiens) (UniProt P29275).
T8 sequence (whole entry): T3 sequence (P29275 whole entry)
The following applies: CHO, 0.3 nM.

The target in experiment [12] is T9, Adenosine receptor A2b (Mus musculus) (UniProt Q60614).
T9 sequence (whole entry): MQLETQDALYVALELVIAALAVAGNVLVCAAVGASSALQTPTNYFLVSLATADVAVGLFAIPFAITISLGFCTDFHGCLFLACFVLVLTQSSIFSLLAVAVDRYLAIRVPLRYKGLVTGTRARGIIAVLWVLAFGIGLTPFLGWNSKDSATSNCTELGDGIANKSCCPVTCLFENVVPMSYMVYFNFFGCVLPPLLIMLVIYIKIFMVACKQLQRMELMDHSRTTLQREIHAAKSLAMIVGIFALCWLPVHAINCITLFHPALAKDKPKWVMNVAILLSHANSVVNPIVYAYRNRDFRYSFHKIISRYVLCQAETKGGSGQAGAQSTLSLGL
Kind of experiment: Activity at mouse recombinant adenosine A2B receptor expressed in CHO cells assessed per mg of protein. The class given is cell-based.

Experiment [13] deals with T10, Adenosine receptor A2b (Mus musculus, UniProt Q60614).
T10 sequence (Q60614 whole entry): T9 sequence (whole entry)
Kind of experiment: Displacement of [3H]PSB-603 from mouse recombinant adenosine A2B receptor expressed in CHO cells. The experiment is classed as cell-based.

Experiment [14] has as its target T11, Adenosine receptor A3 (Homo sapiens) (UniProt P0DMS8).
T11 sequence (whole entry): T7 sequence (P0DMS8 whole entry)
Kind of experiment: Displacement of [3H]PSB-11 from human recombinant adenosine A3 receptor expressed in CHO cells at 10 uM. The class given is cell-based.

Experiment [15] has as its target Adenosine receptor A2a (Rattus norvegicus) (UniProt P30543). Kind of experiment: Displacement of [3H]MSX-2 from rat brain striatum adenosine A2A receptor at 10 uM.
Experiment [16] addresses T4, Adenosine receptor A2a. Briefly: Displacement of [3H]MSX-2 from human recombinant adenosine A2A receptor expressed in CHO cells at 10 uM. The class given is cell-based.
In experiment [17] the target is T8, Adenosine receptor A2b (Homo sapiens). The following applies: CHO, 0.3 nM. This is another data set of the same source.
Experiment [18] addresses T3, Adenosine receptor A2b. Kind of experiment: Displacement of [125I]I-ABOPX from human recombinant adenosine A2B receptor expressed in HEK293 cells. The experiment is classed as cell-based.

pIC50, pKd, pKi: −log10 of the molar value.

T4 sequence (P29274 whole entry): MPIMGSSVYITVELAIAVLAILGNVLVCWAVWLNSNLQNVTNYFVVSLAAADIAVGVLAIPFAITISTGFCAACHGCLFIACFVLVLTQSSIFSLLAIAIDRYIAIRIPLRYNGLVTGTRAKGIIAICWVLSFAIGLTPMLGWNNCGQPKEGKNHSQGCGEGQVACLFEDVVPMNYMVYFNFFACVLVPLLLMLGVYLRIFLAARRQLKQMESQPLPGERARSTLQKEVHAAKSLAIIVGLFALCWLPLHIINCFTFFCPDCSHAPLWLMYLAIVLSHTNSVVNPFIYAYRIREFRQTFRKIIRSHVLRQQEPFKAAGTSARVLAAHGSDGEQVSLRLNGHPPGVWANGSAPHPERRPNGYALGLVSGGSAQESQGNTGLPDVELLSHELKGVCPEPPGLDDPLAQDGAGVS
Sequence of Adenosine receptor A2a (Rattus norvegicus) (P30543 whole entry): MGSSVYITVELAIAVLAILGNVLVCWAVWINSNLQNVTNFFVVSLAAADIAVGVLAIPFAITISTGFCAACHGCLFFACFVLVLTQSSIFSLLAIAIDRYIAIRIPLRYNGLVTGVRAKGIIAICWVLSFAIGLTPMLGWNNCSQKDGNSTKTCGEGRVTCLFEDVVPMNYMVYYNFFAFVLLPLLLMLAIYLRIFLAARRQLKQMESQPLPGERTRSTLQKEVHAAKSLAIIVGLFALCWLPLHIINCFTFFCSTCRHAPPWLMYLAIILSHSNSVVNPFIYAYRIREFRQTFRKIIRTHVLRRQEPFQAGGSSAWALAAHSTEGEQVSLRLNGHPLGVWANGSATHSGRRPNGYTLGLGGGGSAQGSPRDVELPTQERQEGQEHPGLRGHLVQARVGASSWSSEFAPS
Sequence of Adenosine receptor A2a (Rattus norvegicus, UniProt P30543) (P30543 whole entry): as above

As to `CCCn1c(=O)[nH]c2nc(-c3ccc(S(=O)(=O)N4CCN(c5ccc(Cl)cc5)CC4)cc3)[nH]c2c1=O`, the pKi at Adenosine receptor A2a [1] is under 5.00; at Adenosine receptor A1 [3], under 5.00; on Adenosine receptor A2a [6], under 5.00; at Adenosine receptor A1 [9], under 5.00; on Adenosine receptor A3, under 5.00; at Adenosine receptor A2b [10], 9.26. For the same compound, the inhibition amounted to 10% in experiment [2]; 18% in [8]; 10% in [14]; 19% in experiment [15]; 7% on Adenosine receptor A2a [16]. In addition, the pIC50 at Adenosine receptor A2b [4] is 8.95. The pKd on Adenosine receptor A2b [5] is 9.39; on Adenosine receptor A2b [7], 9.19; at Adenosine receptor A2b [13], 9.45. The T1/2 came to 24.2 min in experiment [11] and 12.8 min in experiment [17]. Also, the Bmax in experiment [12] was 645 fmol.

For the compound `Nc1nc(Cl)nc2c1ncn2[C@@H]1O[C@H](CO)[C@@H](O)[C@H]1O`, the figures for the pKi at Adenosine receptor A2b [18] and on Adenosine receptor A2b [10] were 4.59 and 4.67, respectively.
